Measurements: US8268772B2, “Depot preparations” (Symrise AG, priority 2001, dated 2012)

How the values were obtained:
[1] = Storage stability in soap formulation; type: physicochemical; conditions: stored in the dark about one month at room temperature
Text: (§1) (Amount after storage/Amount before storage)*100%=Storage stability [%]
The separate samples are then divided into portions.
The soap formulations A to F were stored in the dark for about one-month at room temperature.

[2] = Release rate during hair coloring (GC content after mixing developer mass with ammoniacal dye solution); type: physicochemical
Method: To determine the hydrolysis rate the three depot preparations DP Example 8, DP Example 9 and DP Example 10 were added to the developer mass in a concentration of in each case 0.3%. The ammoniacal dye solution, which consists of 2 to 16% ammonia and/or substitutes such as, for example, alkanolamines, in particular monoethanolamine, water, thickeners, emulsifier, bodying agents, reactive dyes, solvents, flexing agents, stabilizers and preservatives, is then added to the developer mass in the ratio 1:1. Samples are then taken from the hair dye solution at defined time intervals, neutralized and extracted with solvent, and the content of depot preparation and released aldehyde is determined by means of gas chromatography using an internal and external standard.

[3] = Storage stability in powder laundry detergent; conditions: after one month storage
Text: The storage stability of a fragrance or of a depot preparation is defined by the percentage of substance still present after storage. (Amount after storage/Amount before storage)*100%=Storage stability [%]
For the determination and for the comparison of the storage stability the depot preparation (DP) consisting of one or more acylals and the corresponding aldehydes (AL) are incorporated into separate samples. (SDP and SAL) of the same formulation of a consumer product, such as, for example, laundry detergent, shampoo or soap. The separate samples are then divided into portions. One portion of the sample SDP and SAL is subjected immediately to a suitable extraction and analytical measurement in order to determine the amount of depot preparation or aldehyde prior to storage. In the analytical investigation by, for example, gas chromatography, a suitable standard is used for quantification. The second portion is subjected to storage at elevated temperature for a defined period and then extracted and quantified using the same methods.
The laundry detergents A and B were used for washing or examined analytically both directly and after storage for four weeks.

[4] = Storage stability in hair colorant developer mass; type: physicochemical
Method: as §1
The formulation of the developer mass typically comprises water, hydrogen peroxide, acids, such as, for example, phosphoric acid, citric acid etc., thickeners, emulsifiers, preservatives, solvents and further auxiliaries. 1% of DP Example 5 is added to the formulation of the developer mass.
The developer formulation, which comprises 1% of DP Example 5, is stored for one and a half months at room temperature.

[5] = 1 min after mixing developer mass (0.3% each DP) 1:1 with ammoniacal dye solution
[6] = 5 min after mixing developer mass (0.3% each DP) 1:1 with ammoniacal dye solution
[7] = 10 min after mixing developer mass (0.3% each DP) 1:1 with ammoniacal dye solution
[8] = 20 min after mixing developer mass (0.3% each DP) 1:1 with ammoniacal dye solution
[9] = 30 min after mixing developer mass (0.3% each DP) 1:1 with ammoniacal dye solution

Storage stability [%] [1] | Relative GC content [%] [2, 5] | Relative GC content [%] [2, 6] | Relative GC content [%] [2, 7] | Relative GC content [%] [2, 8] | Relative GC content [%] [2, 9] | Compound | other results
27% |  |  |  |  |  | CC(C)(C)c1ccc(CCC=O)cc1 [Bourgeonal, 4-tert-Butyldihydrocinnamaldehyde, reference compound] | 
 | 1.4% | 17.1% | 19.3% | 12.2% | 11.4% | CCCCCCC=O [Aldehyde C7, heptanal, reference compound] | 
93% |  |  |  |  |  | CCCC(=O)OC(CCc1ccc(C(C)(C)C)cc1)OC(=O)CCC [DP Example 6, 3-(4-tert-Butylphenyl)-1-(butyryloxy)propyl butyrate] | 
93% |  |  |  |  |  | CCCC(=O)OC(OC(=O)CCC)c1ccccc1 [DP Example 5, (Butyryloxy)(phenyl)methyl butyrate] | Stability [%] 0 days ([4]; 1% in developer mass, room temperature, 0 days): 100%; Stability [%] 13 days ([4]; 1% in developer mass, room temperature, 13 days): 100%; Stability [%] 28 days ([4]; 1% in developer mass, room temperature, 28 days): 98%; Stability [%] 42 days ([4]; 1% in developer mass, room temperature, 42 days): 100%; color, odor and analytical stability ([4]; developer mass, one and half months at room temperature): color, odor and analytically stable

Second part, the compound before the results:

Compound | Storage stability [%] [1] | Relative GC content [%] [2, 5] | Relative GC content [%] [2, 6] | Relative GC content [%] [2, 7] | Relative GC content [%] [2, 8] | Relative GC content [%] [2, 9] | other results
CCCCCCC(OC(C)=O)OC(C)=O [DP Example 8, 1-(Acetyloxy)heptyl acetate] |  | 22.9% | 0.0% | 0.0% | 0.0% | 0.0% | 
CCCC(=O)OC(OC(=O)CCC)C1CC=C(CCC=C(C)C)CC1 (stereo not shown) [DP Example 3, (Butyryloxy) [4-(4-methyl-3-pentenyl)-3-cyclohexen-1-yl]methyl butyrate] |  |  |  |  |  |  | Storage stability [3]: 93%
CC1=CC(C)C(C=O)CC1 (stereo not shown) [Vertocitral, reference compound] |  | 2.1% | 33.6% | 33.6% | 19.3% | 15.7% | 
CC(=O)OC(OC(C)=O)C1CCC(C)=CC1C (stereo not shown) [DP Example 9, (Acetyloxy)(2,4-dimethyl-3-cyclohexen-1-yl)methyl acetate] |  | 28.9% | 2.5% | 0.5% | 0.0% | 0.0% | 
O=Cc1ccccc1 [Benzaldehyde, reference compound] | 45% |  |  |  |  |  | 
CCCCCCCCCC(OC(=O)CCCCCC)OC(=O)CCCCCC [DP Example 7, 1-(Heptanoyloxy)decyl heptanoate] | 95% |  |  |  |  |  | 
CCCCCCCCCC(C)C(OC(C)=O)OC(C)=O (stereo not shown) [DP Example 10, 1-(Acetyloxy)-2-methylundecyl acetate] |  | 48.2% | 5.1% | 2.0% | 0.0% | 0.0% | 
CCCCCCCCCC=O [Aldehyde C10, Decanal, reference compound] | 32% |  |  |  |  |  | 
CC(C)=CCCC1=CCC(C=O)CC1 (stereo not shown) [Vertomugal, 1-Formyl-4-(4-methyl-3-pentenyl)-3-cyclohexene, reference compound] |  |  |  |  |  |  | Storage stability [3]: 34%
CCCCCCCCCC(C)C=O (stereo not shown) [2-Methylundecanal, reference compound] |  | 2.8% | 32.8% | 47.1% | 20.7% | 16.4% | 
